Assays:
[1] = Blood level in the rat after one-time intravenous injection; type: in vivo; settings: one-time i.v. injection, Ultravist 300 mg I/kg, example 4c 200 mg I/kg, especially first 10 minutes, average of three animals, FIG. 1
Method: The blood level in the rat was determined after one-time intravenous injection of 300 mg of I/kg of body weight of Ultravist®[]. and 200 mg of I/kg of body weight of the compound of example 4c [.diamond.]. The data represent the average value from three animals each.

[2] = Elimination from and retention in the body of the rat; type: in vivo

Compound | blood concentration over time, standardized to the administered dose [1] | route of elimination [2] | elimination from the body ([2]; dose 100 mg of I/kg) | retention in the organs liver, kidney and spleen as well as in the remainder of the body ([2]; dose 100 mg of I/kg, 14 days after administration)
COCC(=O)Nc1c(I)c(C(=O)NCC(O)CO)c(I)c(C(=O)N(C)CC(O)CO)c1I (centres unmarked) [Ultravist, reference compound] | very much more quickly | – | – | –
Octatetracontakis-{3-sodium carboxylatoformylamino-5-(2,3-dihydroxypropylcarbamoyl)-2,4,6-triiodobenzoyl} derivative of the lysine-alanine copolymer (K5)8 K4 K2 K-A--OH [Example 4] | remains very much longer in the blood space | mainly through the kidney | complete elimination | 0.36 % of the dose

— patent US5756066A, “Iodine-containing peptides” (Schering Aktiengesellschaft, priority 1995, dated 1998)
